Experimental data reported in PubChem BioAssay (NCI).
“And” between values parts separate entries of the source, which are not always exact repeats. Equal entries are not always repeated.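 Method: 48-hour compound exposure of cells in 96-well plates, five concentrations, linear interpolation of endpoints. At the GI50, growth is halved. TGI: concentration producing complete growth inhibition.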 Where a SMILES comes first, the peptide text is derived from it. [ ]: non-standard residue; d: D form. The star is where a group is joined. Dolaproine = CO[C@@H]([C@@H]1CCCN1)[C@@H](C)C(=O)O; Dil = CC[C@H](C)[C@H](NC)[C@@H](CC(=O)O)OC; X2 = C[C@@H](N*)[C@@H](O)c1ccccc1; NMeV = CN[C@H](C(=O)O)C(C)C

Tests used:
Test in all cases: NCI-60 cell line screen, 48 h
HOP-62 NSCLC = test system: HOP-62 NSCLC
OVCAR-5 ovarian = test system: OVCAR-5 ovarian
NCI-H460 lung = test system: NCI-H460 lung
U251 CNS = test system: U251 CNS
RPMI-8226 leukemia = test system: RPMI-8226 leukemia
HCT-15 colon = test system: HCT-15 colon
NCI/ADR-RES ovarian = test system: NCI/ADR-RES ovarian
SW-620 colon = test system: SW-620 colon
KM12 colon = test system: KM12 colon
NCI-H23 lung = test system: NCI-H23 lung
SR leukemia = test system: SR leukemia
PC-3 prostate = test system: PC-3 prostate
ACHN renal = test system: ACHN renal
HL-60(TB) leukemia = test system: HL-60(TB) leukemia
SK-MEL-2 melanoma = test system: SK-MEL-2 melanoma
K-562 leukemia = test system: K-562 leukemia
CAKI-1 renal = test system: CAKI-1 renal
HT29 colon = test system: HT29 colon
LOX IMVI melanoma = test system: LOX IMVI melanoma
SN12C renal = test system: SN12C renal
BT-549 breast = test system: BT-549 breast
OVCAR-3 ovarian = test system: OVCAR-3 ovarian
UACC-62 melanoma = test system: UACC-62 melanoma
NCI-H522 lung = test system: NCI-H522 lung
MDA-MB-435 = test system: MDA-MB-435
SK-MEL-5 melanoma = test system: SK-MEL-5 melanoma
M14 melanoma = test system: M14 melanoma
NCI-H226 lung = test system: NCI-H226 lung
MOLT-4 leukemia = test system: MOLT-4 leukemia
DU-145 prostate = test system: DU-145 prostate
A549 NSCLC = test system: A549 NSCLC
OVCAR-4 ovarian = test system: OVCAR-4 ovarian
SK-OV-3 ovarian = test system: SK-OV-3 ovarian
SF-539 CNS = test system: SF-539 CNS
TK-10 renal = test system: TK-10 renal
A498 renal = test system: A498 renal
UACC-257 melanoma = test system: UACC-257 melanoma
SF-268 CNS = test system: SF-268 CNS
HCT-116 colon = test system: HCT-116 colon
SF-295 CNS = test system: SF-295 CNS
CCRF-CEM leukemia = test system: CCRF-CEM leukemia
OVCAR-8 ovarian = test system: OVCAR-8 ovarian
UO-31 renal = test system: UO-31 renal
786-0 renal = test system: 786-0 renal
HOP-92 NSCLC = test system: HOP-92 NSCLC
HS 578T breast = test system: HS 578T breast
SNB-75 CNS = test system: SNB-75 CNS
MALME-3M melanoma = test system: MALME-3M melanoma
MCF7 breast = test system: MCF7 breast
MDA-MB-231 breast = test system: MDA-MB-231 breast
SNB-19 CNS = test system: SNB-19 CNS
COLO 205 colon = test system: COLO 205 colon
HCC-2998 colon = test system: HCC-2998 colon
IGROV1 ovarian = test system: IGROV1 ovarian
EKVX NSCLC = test system: EKVX NSCLC
T-47D breast = test system: T-47D breast
SK-MEL-28 melanoma = test system: SK-MEL-28 melanoma

SMILES: CC[C@H](C)[C@@H]([C@@H](CC(=O)N1CCC[C@H]1[C@H](OC)[C@@H](C)C(=O)N[C@H](C)[C@@H](O)c1ccccc1)OC)N(C)C(=O)[C@@H](NC(=O)[C@@H](NC)C(C)C)C(C)C (H-[NMeV]V[Dil][Dolaproine]-X2)
- GI50 (HOP-62 NSCLC): < 0.005 µM
- TGI (HOP-62 NSCLC): > 100 µM
- GI50 (OVCAR-5 ovarian): < 0.005 µM
- TGI (OVCAR-5 ovarian): > 100 µM
- GI50 (NCI-H460 lung): < 0.005 µM
- TGI (NCI-H460 lung): > 100 µM
- GI50 (U251 CNS): < 0.005 µM
- TGI (U251 CNS): > 100 µM
- GI50 (RPMI-8226 leukemia): < 0.005 µM
- TGI (RPMI-8226 leukemia): > 100 µM
- GI50 (HCT-15 colon): 0.0444 µM and 0.0233 µM
- TGI (HCT-15 colon): > 100 µM
- GI50 (NCI/ADR-RES ovarian): 0.169 µM and 0.118 µM
- TGI (NCI/ADR-RES ovarian): > 50 µM and 9.41 µM
- GI50 (SW-620 colon): < 0.005 µM
- TGI (SW-620 colon): > 100 µM
- GI50 (KM12 colon): < 0.005 µM
- TGI (KM12 colon): > 100 µM
- GI50 (NCI-H23 lung): < 0.005 µM
- TGI (NCI-H23 lung): > 50 µM
- GI50 (SR leukemia): < 0.005 µM
- TGI (SR leukemia): > 100 µM
- GI50 (PC-3 prostate): < 0.005 µM
- TGI (PC-3 prostate): > 100 µM
- GI50 (ACHN renal): 0.024 µM and 0.0202 µM
- TGI (ACHN renal): > 100 µM
- GI50 (HL-60(TB) leukemia): < 0.005 µM
- TGI (HL-60(TB) leukemia): 0.00787 µM and < 0.01 µM
- GI50 (SK-MEL-2 melanoma): < 0.005 µM
- TGI (SK-MEL-2 melanoma): > 100 µM
- GI50 (K-562 leukemia): < 0.005 µM
- TGI (K-562 leukemia): > 100 µM
- GI50 (CAKI-1 renal): < 0.01 µM
- TGI (CAKI-1 renal): > 94.8 µM
- GI50 (HT29 colon): < 0.005 µM
- TGI (HT29 colon): 0.154 µM
- GI50 (LOX IMVI melanoma): < 0.005 µM
- TGI (LOX IMVI melanoma): > 100 µM
- GI50 (SN12C renal): < 0.005 µM
- TGI (SN12C renal): > 100 µM
- GI50 (BT-549 breast): < 0.005 µM and 0.0141 µM
- TGI (BT-549 breast): 0.0507 µM and 0.0821 µM
- GI50 (OVCAR-3 ovarian): < 0.01 µM
- TGI (OVCAR-3 ovarian): 0.651 µM
- GI50 (UACC-62 melanoma): < 0.005 µM
- TGI (UACC-62 melanoma): > 100 µM
- GI50 (NCI-H522 lung): < 0.005 µM
- TGI (NCI-H522 lung): 0.0122 µM and < 0.01 µM
- GI50 (MDA-MB-435): < 0.005 µM
- TGI (MDA-MB-435): < 0.005 µM
- GI50 (SK-MEL-5 melanoma): < 0.005 µM
- TGI (SK-MEL-5 melanoma): 0.0505 µM and 0.0772 µM
- GI50 (M14 melanoma): < 0.005 µM
- TGI (M14 melanoma): 0.00705 µM
- GI50 (NCI-H226 lung): 0.0179 µM and < 0.0156 µM
- TGI (NCI-H226 lung): > 50 µM
- GI50 (MOLT-4 leukemia): < 0.005 µM
- TGI (MOLT-4 leukemia): > 100 µM
- GI50 (DU-145 prostate): < 0.005 µM
- TGI (DU-145 prostate): > 100 µM
- GI50 (A549 NSCLC): < 0.005 µM
- TGI (A549 NSCLC): > 100 µM
- TGI (OVCAR-4 ovarian): > 100 µM
- GI50 (SK-OV-3 ovarian): < 0.005 µM
- TGI (SK-OV-3 ovarian): > 100 µM
- GI50 (SF-539 CNS): < 0.005 µM
- TGI (SF-539 CNS): 0.0128 µM and < 0.0107 µM
- GI50 (TK-10 renal): > 100 µM
- TGI (TK-10 renal): > 100 µM
- GI50 (A498 renal): 0.00518 µM
- TGI (A498 renal): 0.387 µM
- TGI (UACC-257 melanoma): > 100 µM
- GI50 (SF-268 CNS): 0.00638 µM and < 0.0108 µM
- TGI (SF-268 CNS): > 100 µM
- GI50 (HCT-116 colon): < 0.01 µM
- TGI (HCT-116 colon): > 100 µM
- GI50 (SF-295 CNS): < 0.005 µM
- TGI (SF-295 CNS): > 100 µM
- GI50 (CCRF-CEM leukemia): < 0.005 µM
- TGI (CCRF-CEM leukemia): > 100 µM
- GI50 (OVCAR-8 ovarian): 0.00764 µM and < 0.01 µM
- TGI (OVCAR-8 ovarian): > 50 µM
- GI50 (UO-31 renal): 0.0419 µM
- TGI (UO-31 renal): > 100 µM
- GI50 (786-0 renal): 0.00646 µM and < 0.01 µM
- TGI (786-0 renal): > 100 µM
- TGI (HOP-92 NSCLC): > 100 µM
- GI50 (HS 578T breast): 0.0101 µM and < 0.01 µM
- TGI (HS 578T breast): > 100 µM
- GI50 (SNB-75 CNS): < 0.005 µM
- TGI (SNB-75 CNS): > 50 µM
- TGI (MALME-3M melanoma): > 100 µM
- GI50 (MCF7 breast): < 0.005 µM
- TGI (MCF7 breast): > 100 µM
- GI50 (MDA-MB-231 breast): < 0.005 µM
- TGI (MDA-MB-231 breast): > 13.1 µM and 1.84 µM
- GI50 (SNB-19 CNS): < 0.005 µM
- TGI (SNB-19 CNS): > 100 µM
- GI50 (COLO 205 colon): < 0.005 µM
- TGI (COLO 205 colon): < 0.005 µM
- GI50 (HCC-2998 colon): < 0.005 µM
- TGI (HCC-2998 colon): > 100 µM
- GI50 (IGROV1 ovarian): 0.00831 µM and < 0.01 µM
- TGI (IGROV1 ovarian): > 100 µM
- GI50 (EKVX NSCLC): 0.00692 µM and < 0.01 µM
- TGI (EKVX NSCLC): > 100 µM

SMILES: C=C(CBr)CCCOCc1ccccc1
- TGI (HOP-62 NSCLC): 48.6 µM
- TGI (OVCAR-5 ovarian): 33.3 µM
- TGI (NCI-H460 lung): 35.3 µM
- TGI (U251 CNS): > 100 µM
- TGI (RPMI-8226 leukemia): 64.7 µM
- TGI (HCT-15 colon): 68.2 µM
- TGI (NCI/ADR-RES ovarian): 40 µM
- TGI (SW-620 colon): > 100 µM
- TGI (KM12 colon): 33.7 µM
- TGI (NCI-H23 lung): 30.9 µM
- TGI (SR leukemia): 89.8 µM
- TGI (PC-3 prostate): 39.8 µM
- TGI (ACHN renal): 27.3 µM
- TGI (HL-60(TB) leukemia): 72.6 µM
- TGI (SK-MEL-2 melanoma): 38 µM
- TGI (K-562 leukemia): > 100 µM
- TGI (T-47D breast): > 100 µM
- TGI (CAKI-1 renal): 18.2 µM
- TGI (HT29 colon): 39.2 µM
- TGI (LOX IMVI melanoma): 92.9 µM
- TGI (SN12C renal): 57.3 µM
- TGI (BT-549 breast): 35.4 µM
- TGI (OVCAR-3 ovarian): 37.6 µM
- TGI (UACC-62 melanoma): 47.2 µM
- TGI (NCI-H522 lung): 49.1 µM
- TGI (MDA-MB-435): 88.2 µM
- TGI (SK-MEL-5 melanoma): 35.9 µM
- TGI (M14 melanoma): 31.9 µM
- TGI (NCI-H226 lung): 41.5 µM
- TGI (MOLT-4 leukemia): > 100 µM
- TGI (DU-145 prostate): > 100 µM
- TGI (A549 NSCLC): > 100 µM
- TGI (OVCAR-4 ovarian): 38.2 µM
- TGI (SK-OV-3 ovarian): > 100 µM
- TGI (SF-539 CNS): 34.8 µM
- TGI (TK-10 renal): 36.3 µM
- TGI (A498 renal): > 100 µM
- TGI (UACC-257 melanoma): > 100 µM
- TGI (SF-268 CNS): 32.5 µM
- TGI (HCT-116 colon): > 100 µM
- TGI (SF-295 CNS): > 100 µM
- TGI (CCRF-CEM leukemia): > 100 µM
- TGI (OVCAR-8 ovarian): 32.2 µM
- TGI (UO-31 renal): 26.8 µM
- TGI (786-0 renal): > 100 µM
- TGI (HOP-92 NSCLC): 49.8 µM
- TGI (MALME-3M melanoma): 41.7 µM
- TGI (MCF7 breast): 77.1 µM
- TGI (SNB-19 CNS): > 100 µM
- TGI (SK-MEL-28 melanoma): > 100 µM
- TGI (COLO 205 colon): 54 µM
- TGI (IGROV1 ovarian): 44.3 µM
- TGI (EKVX NSCLC): 46.6 µM
